# In the supplement of paper PMC13380429:
# Assays:
# Conditions in all cases: 72 h
# HepG2 [1] = experiment: cell viability relative to DMSO; higher = less toxic
# Vero E6 [2] = experiment: as above
# Caco-2 [3] = experiment: as above
# Calu-3 [4] = experiment: as above
# U2OS [5] = experiment: as above
# HepG2 [6] = experiment: relative viability EC50 (midpoint between 100% and the lowest measured viability); higher = less toxic
# Vero E6 [7] = experiment: as above
# Caco-2 [8] = experiment: as above
# Calu-3 [9] = experiment: as above
# U2OS [10] = experiment: as above
# HepG2 [11] = experiment: drug sensitivity score (DSS) for viability; higher = more toxic; extreme values may be limits of the assay
# Vero E6 [12] = experiment: as above
# Caco-2 [13] = experiment: as above
# Calu-3 [14] = experiment: as above
# U2OS [15] = experiment: as above
Compound,cell viability (HepG2 [1]; 1 nM) [%],cell viability (HepG2 [1]; 10 nM) [%],cell viability (HepG2 [1]; 100 nM) [%],cell viability (HepG2 [1]; 1000 nM) [%],cell viability (HepG2 [1]; 10000 nM) [%],cell viability (Vero E6 [2]; 1 nM) [%],cell viability (Vero E6 [2]; 10 nM) [%],cell viability (Vero E6 [2]; 100 nM) [%],cell viability (Vero E6 [2]; 1000 nM) [%],cell viability (Vero E6 [2]; 10000 nM) [%],cell viability (Caco-2 [3]; 1 nM) [%],cell viability (Caco-2 [3]; 10 nM) [%],cell viability (Caco-2 [3]; 100 nM) [%],cell viability (Caco-2 [3]; 1000 nM) [%],cell viability (Caco-2 [3]; 10000 nM) [%],cell viability (Calu-3 [4]; 1 nM) [%],cell viability (Calu-3 [4]; 10 nM) [%],cell viability (Calu-3 [4]; 100 nM) [%],cell viability (Calu-3 [4]; 1000 nM) [%],cell viability (Calu-3 [4]; 10000 nM) [%],cell viability (U2OS [5]; 1 nM) [%],cell viability (U2OS [5]; 10 nM) [%],cell viability (U2OS [5]; 100 nM) [%],cell viability (U2OS [5]; 1000 nM) [%],cell viability (U2OS [5]; 10000 nM) [%],relative viability EC50 (HepG2 [6]) [µM],relative viability EC50 (Vero E6 [7]) [µM],relative viability EC50 (Caco-2 [8]) [µM],relative viability EC50 (Calu-3 [9]) [µM],relative viability EC50 (U2OS [10]) [µM],drug sensitivity score (HepG2 [11]),drug sensitivity score (Vero E6 [12]),drug sensitivity score (Caco-2 [13]),drug sensitivity score (Calu-3 [14]),drug sensitivity score (U2OS [15])
N=C(NCc1ccc(Cl)cc1)SCCCc1c[nH]cn1 [clobenpropit],94.2,106,105,102,84,101,100,97.4,93.3,97.5,97.5,96.2,101,93.5,104,108,100,103,101,82.4,110,104,99.5,98.3,99.6,> 10,> 10,> 10,> 10,> 10,0.2,0,0,0.3,0
CC(=O)c1c(O)cc(C)oc1=O [dehydroacetic-acid],100,103,99.9,96.7,103,98,93.6,92.5,101,95.4,101,107,91.9,104,94.9,105,107,98.2,101,101,99.2,101,96.2,103,100,> 10,> 10,> 10,> 10,> 10,0,0,0,0,0
CNCC(O)c1ccc(OC(=O)C(C)(C)C)c(OC(=O)C(C)(C)C)c1 (stereo not given) [dipivefrine],97.5,94.1,98.2,97.7,84.3,100,100,93.3,98.3,97.4,104,94,102,90.4,85,97.9,102,106,96.3,109,99.4,95.1,97.3,96.2,97.1,> 10,> 10,> 10,> 10,> 10,0.5,0,0.9,0,0
CN(CCOc1ccc(NS(C)(=O)=O)cc1)CCc1ccc(NS(C)(=O)=O)cc1 [dofetilide],100,102,89.5,117,118,92.6,104,90.2,98.1,110,91.1,99.9,99.1,97.1,102,111,90.4,101,98.6,104,100,102,102,96.6,97,> 10,> 10,> 10,> 10,> 10,0,0,0,0,0
NCCc1ccc(O)c(O)c1 [dopamine],106,107,95.1,115,99.6,103,106,102,97,99.4,106,97.7,92.5,91.1,89.9,100,100,100,99.8,109,101,96.6,101,100,100,> 10,> 10,> 10,> 10,> 10,0,0,0,0,0
CC(C)(O)CNc1nc(Nc2ccnc(C(F)(F)F)c2)nc(-c2cccc(C(F)(F)F)n2)n1 [enasidenib],106,96.9,110,106,91.7,98.2,94.2,97.9,99.6,101,94.5,115,107,102,79.3,96,106,103,87.8,92.7,101,104,99.9,104,92,> 10,> 10,> 10,> 10,> 10,0,0,0.5,0.5,0
CCc1cccc(CC)c1NC(=O)CN(CC(=O)O)CC(=O)O [etifenin],104,84.1,106,95.9,113,106,93.7,106,97.4,95,83.1,104,95.7,124,93.3,94.6,104,105,90.5,90.6,87.1,97.2,90.1,103,106,> 10,> 10,> 10,> 10,> 10,0,0,0,0,0
